One experiment relates to HLA-DR4 transgenic mice. Briefly: Peptide immunogenicity in HLA-DR transgenic mice (immunisation). The format is in vivo, mouse. The note with it: HLA-DR4 transgenic mice (HLA-DRB1*04:01); data not shown. The method, then:
HLA-DR4 transgenic mice were injected subcutaneously with Complete Freund's Adjuvant (CFA) and 100 μg of GAD65 P10 30-mer. After 10 days, splenocytes were isolated and re-stimulated with GAD65 P10 30-mer for a further 4-5 days before fusion with hypoxanthine-aminopterin-thymidine (HAT) sensitive BW5147 cells using polyethylene glycol (PEG). Fused hybridomas were expanded in HAT selection media before antigen-specific screening. Co-cultures of 1×10^5 hybridomas and 2×10^5 Priess cells (an Epstein-Barr Virus (EBV) transformed DR4 (DRB1*04:01) expressing human cell line (ECACC 86052111)) as antigen presenting cells (APCs) were incubated for 48 h in a 96-well plate with peptide, whole GAD65 protein, or media only. Antigen-specific responses were determined by IL-2 secretion into culture supernatant by ELISA assay (BioLegend 431004). Hybridomas that proliferated in response to both GAD65 protein and GAD65 30-mer were single cell cloned by limiting dilution.
Generation of hybridomas that respond to both the GAD65 protein and the P10 30-mer peptide means that these hybridomas can recognise naturally processed peptide presented by APCs—a property shown to be critical for successful peptide immunotherapy design (Anderton et al 2002).

In experiment [1] the test system is MHC class II molecules on fixed or non-fixed HLA-DR4 transgenic mouse splenocytes (hybridoma SC3 readout). Briefly: Fixed APC T-cell hybridoma screen. Format: cell-based. Conditions: co-culture with formaldehyde fixed and non-fixed HLA-DR4 splenocytes, 48 h. On the procedure:
Splenocytes from HLA-DR4 transgenic mice were formaldehyde fixed by the following protocol performed at room temperature; 5 min incubation with 0.5% w/v formaldehyde in PBS at 1×10^6 cells/mL quenched by addition of an equal volume of 0.4 M glycine in PBS solution for a further 5 min, before three washes with cold PBS. T-cell hybridoma screens were set up using 1×10^5 hybridomas and either 2×10^5 formaldehyde fixed APCs or 2×10^5 non-fixed APCs for 48 h co-culture with stimulant or control and responses measured by IL-2 secretion.
The next step was to test if GAD65 P10.5.C+1.6K (P10Sol; SEQ ID NO 23) could bind to: (i) MHC class II molecules without antigen processing and, (ii) to steady-state CD11c^+ APCs. These properties are good indicators of whether a peptide can induce tolerance and be characterised as an apitope (Shepard et al., 2021). Formaldehyde fixation of splenocytes inhibits antigen processing and so to test whether GAD65 P10Sol could bind directly to cell-surface MHC class II without antigen processing, GAD65 P10-specific hybridoma SC3 was co-cultured with fixed or non-fixed splenocytes from HLA-DR4 transgenic mice. […] To test whether P10Sol could bind to steady-state CD11c^+ APCs in vivo, HLA-DR4 transgenic mice were injected with 80 μg of P10Sol or PBS, with CD11c^+ splenocytes isolated 1 h later and co-cultured with GAD65 P10 hybridomas SC3 or SC22. […]

Regarding “DAAWGGGLLMSRKHKWKLSGVERANSVTWN [P10 30-mer]”, in the experiment on HLA-DR4 transgenic mice, the response to immunisation result is given as “responded well”. For the same sequence, in experiment [1], the “IL-2 response from hybridoma SC3” value was “strong IL-2 responses”.

These data come from patent publication US20260034200A1, “TOLEROGENIC PEPTIDES” (University of Birmingham, priority 2022, published 2026).
